Measurements published in US11207285B2, “Diabetes treatment regimens using alpha, alpha-substituted long-chain amphipathic carboxylates” (SYNDROMEX LTD., priority 2016, dated 2021).

Assays:
[1] = 4-week M16αα study in T2D patients, trough plasma levels; type: in vivo, human; conditions: Cohort 1 patients, 40 mg once daily oral, 28-day dosing period
Experimental: Pre-dose blood samples to determine trough levels of M16αα were collected in lithium heparin tubes at the following dosing days: 1, 8, 15, 28, and EOS visit. Plasma M16αα concentrations have been presently processed for Cohort 1 patients only. […] Calculated PK parameters: Pre-dose Css.
Plasma concentrations of M16αα are determined by a validated LC/MS method. The lower and upper limits of quantitation for M16αα concentrations are 100 ng/mL and 5000 ng/mL, respectively. The assay is linear from 0.1-5 μg/mL. Dilution extends the range to 100 μg/mL

[2] = tested on: mitochondrial permeability transition pore (PTP); assay: gating of mitochondrial PTP; conditions: mild decoupling of mitochondrial oxidative phosphorylation
[3] = tested on: cultured human HepG2 liver cells; assay: inhibition of lipoprotein production in HepG2 cells; type: cell-based
[4] = tested on: Type 2 Diabetes Mellitus (T2D) patients; assay: 4-week M16αα study in T2D patients, safety and tolerability; type: in vivo, human; conditions: 40 mg/day oral, 28 days
Experimental: T2D patients, non-treated or treated with SoC antidiabetic drugs as outlined below, were screened for eligibility (inclusion/exclusion according to criteria detailed below), followed by being randomly allocated to receive once daily either add-on M16αα (40 mg M16αα plus 130 mg microcrystalline cellulose in gelatin capsules) or add-on placebo (130 mg microcrystalline cellulose in gelatin capsules), in addition to the SoC anti-diabetic treatment they have been receiving regularly. One patient was not under SoC anti-diabetic drug treatment. Sixteen (16) patients were randomized to M16αα treatment and 3 patients were randomized to placebo treatment. Patients randomized to M16αα treatment were dosed for 28 days with add-on M16αα in double-blinded manner, followed by 4-week recovery period using add-on placebo in a single-blinded manner. Patients randomized to placebo treatment were dosed for 28 days with add-on placebo in double-blinded manner.
The primary safety endpoint was the frequency, severity, and duration of adverse events (AEs), including clinically significant laboratory abnormalities after administration of M16αα.
Safety was evaluated on the basis of the following assessments: Adverse events (AEs)—continuous (starting from informed consent signature until end of study); vital signs; 12-lead ECG; physical examination; safety laboratory evaluations (blood and urine). […]

HepG2 human liver cells = assay: inhibition of glucose production in HepG2 cells; type: cell-based
Experimental: (§1) The compound 2,2,15,15-tetramethylhexadecane-1,16-dioic acid (also designated M16αα), and also the compounds […] (M18αα) and 2,2,19,19-tetramethyl-[…]-1,20-dioic acid (M20αα), were tested for their effect on glucose uptake and production, and the expression of glucose- and lipid-related genes in in vitro models. […] Inhibition of glucose production was tested in HepG2 human liver cells.

rats = conditions: WO98/30530, cited from earlier work
[5] = tested on: fully differentiated 3T3L1 adipocytes; assay: glucose uptake in 3T3L1 adipocytes; type: cell-based; conditions: insulin as positive control
Experimental: as §1

half-life in rats = conditions: rat, in vivo, read-out: half-life (T1/2) (converted)
From the text: (§2) The half-life (T1/2) of Medica compounds in humans differs considerably from their half-life in model animals. […] This difference in half-life could not be expected, and is of considerable significance when designing a new treatment protocol for humans.

[6] = target: mammalian target of rapamycin (mTORC1) (Homo sapiens, UniProt P42345); assay: modulation of mTORC1 activity
[7] = tested on: AMP-activated protein kinase (AMPK); assay: modulation of AMPK activity
[8] = tested on: genes that control liver gluconeogenesis and lipid synthesis; assay: expression of glucose- and lipid-related genes in in vitro models; type: cell-based
Experimental: as §1

half-life in dogs = conditions: dog, in vivo, read-out: half-life (T1/2) (converted)
From the text: as §2

[9] = tested on: C57BL/KsJ (db/db) Spontaneous T2D mice; assay: glucose lowering effect in db/db mice; type: in vivo; conditions: once daily oral 30 mg/kg
Experimental: In addition, the glucose lowering effect of the above three compounds M16αα, M18αα and M20αα was tested in C57BL/KsJ (db/db) Spontaneous T2D mice, which serve as a model for T2D. These animals are characterized by hyperphagia, obesity, hyperglycemia and insulin resistance. The mice were treated once daily by oral administration of the tested compound at 30 mg/kg.

For `CC(C)(CCCCCCCCCCCCC(C)(C)C(=O)O)C(=O)O` [M16αα, 2,2,15,15-tetramethyl-hexadecane-1,16-dioic acid], the “trough M16αα plasma concentrations” value [1] was “increased progressively throughout the 28-day dosing period”, the “gating of mitochondrial PTP” value [2] was “induces low-conductance gating of mitochondrial PTP” and the lipoprotein production [3] was “significant or full inhibition”. For the same compound, the “serious adverse events (SAE)” value [4] was “No serious adverse events (SAE) were recorded”, the tolerability and safety [4] was “well tolerated and safe” and the hepatic glucose production (HepG2 human liver cells) was “significant or full inhibition”. For the same compound, the plasma lipids (rats; hyperlipidemic animal models) was “normalization of plasma lipids”, the “plasma triglycerides and cholesterol” value (rats; normolipidemic animals) was “decrease in plasma triglycerides and cholesterol” and the hypolipidemic activity (rats; rats) was “potent hypolipidemic agent”. For the same compound, the glucose uptake [5] was “increase glucose uptake”, the half-life (half-life in rats) was 2.4 ± 0.6 h and the mTORC1 activity [6] was “suppressing”. For the same compound, the AMPK activity [7] was “activating”, the “expression of genes that control liver gluconeogenesis and lipid synthesis” value [8] was “effective in inhibiting” and the half-life (half-life in dogs) was 65 h. The blood glucose levels [9] was “significantly decrease”, the serum insulin levels [9] was “significantly decrease” and the serum triglyceride levels [9] was “significantly decrease”.
